Measurements from US20200199523A1, “MEDIA FOR MICROORGANISM CULTURE AND RELATED COMPOSITIONS AND METHODS” (Massachusetts Institute of Technology, priority 2017, published 2020).

Key:
wildtype Pichia pastoris = test: Batch cultivation growth (optical density, growth rate) in microtiter plates and shake flasks; format: cell-based, Komagataella phaffii; conditions: for Effect of supplement on growth rate: nutrient screening in defined media; for Growth rate μ in supplemented defined media: nutrient screening, supplement added to defined media; for Effect on growth rate of reducing the element's concentration by 50%: basal salts medium (FIG. 2A)
Description: Batch cultivations were conducted at two scales: microtiter plates and shake flasks. Microtiter plates with 24 wells and pyramidal bottoms were purchased from Axygen. Each well had 10 mL total volume and cultivations used a 3 mL working volume. Plates were incubated in a Liconic LPX44 shaker at 600 rpm. Temperature was not controlled but remained at room temperature, between 21 and 24° C. […] The shake rate was set to 300 rpm and the temperature was controlled at 25° C. […]
All chemicals used in media formulations were purchased from Sigma. Complex media was purchased from Teknova. […] Glycerol was added at a starting concentration of 1% by volume. Media was autoclaved and filtered through a […] bottletop filter before use. PTM1 salts were added after filtration to avoid loss of trace elements through precipitation.
Biomass was measured by optical density. Shake flask samples were measured on a Genesys 10 Bio spectrophotometer. Microtiter plate samples were measured using a Tecan Infinite M200 Pro plate reader and converted to the same scale as the spectrophotometer samples using a calibration curve. Growth rates were calculated by linear regression between the natural logarithm of the optical density and the cultivation time in hours. The regression was run on time points during the exponential growth phase unless otherwise specified.

[1] = test system: K. phaffii strain modified to express human growth hormone (hGH); test: Perfusion cultivation: biomass (wet cell weight), hGH titer, productivity; format: cell-based
Description: Experiments were conducted using a K. phaffii strain modified to express human growth hormone (hGH) under the control of the AOX1 promoter. For biomass accumulation, cells were grown in medium containing per liter: 40 mL glycerol, 12 g KH2PO4, 4.7 g MgSO4.7H2O, 0.36 g CaCl2.2H2O, 4.96 g (NH4)2SO4, 1.46 g L-glutamine, 1.74 g L-arginine, 3.3 mL of vitamin solution, 10 mL of lipids solution, and 4.35 mL of PTM1 salts (Amresco J241). For protein production, cells were grown in medium containing per liter: 12 g KH2PO4, 4.7 g MgSO4.7H2O, 0.36 g CaCl2.2H2O, 13.21 g (NH4)2SO4, 2.92 g L-glutamine, 3.3 mL of vitamin solution, 10 mL of lipids solution, and 4.35 mL of PTM1 salts (Amresco J241). Both media were adjusted to pH 6.5 using 5M KOH. The vitamin solution consisted of per liter: 7.5 g myo-inositol, 0.3 g thiamine HCl, 0.3 g calcium pantothenate, 0.3 g nicotinic acid, 0.3 g pyroxidine HCl, 0.015 g biotin, and 0.06 g para-aminobenzoic acid. The lipids solution consisted of per liter: 2 mg arachidonic acid, 10 mg linoleic acid, 10 mg linolenic acid, 10 mg myristic acid, 10 mg oleic acid, 10 mg palmitic acid, 10 mg stearic acid, 2.2 g Tween-80, 70 mg tocopherol acetate, and 100 g of Pluronic F-68. All chemicals were purchased from Sigma. The medium was filtered before use.
Cultivations were conducted in 0.5 L Infors HT bioreactors adapted for operation in perfusion mode. Cultures were inoculated directly from a frozen cell stock into 0.44 L of medium. Cells were grown for approximately 32 hours in perfusion mode with medium containing glycerol fed at a rate of 0.5 mL/minute. […] The cultures were induced by switching the feed to production medium containing methanol, which was also fed at 0.5 mL/minute. Bioreactor temperature was automatically controlled at 25° C. The pH was controlled at 6.5 using 5M KOH.
For the studies of higher methanol feed rate, two cultivations were conducted. The production medium contained 15% v/v methanol. All other fermentation conditions were as described above.
Biomass was measured by wet cell weight. Five hundred microliters of sample were spun in a Costar Spin-X centrifuge filter tube for 10 minutes at 1500 g and the pellet was weighed. hGH concentrations in the supernatants were quantified by RPLC and by gel electrophoresis (Perkin Elmer GXII). Concentrations estimated by the two methods were highly consistent (slope=0.98, R^2=0.95).
Cell-specific productivity was calculated according to the following system of equations (Amos Lu, unpublished): […]
where qp is the cell-specific productivity, μ is the growth rate, F is the perfusion rate, X is the biomass concentration, and P is the protein titer.

[2] = test system: P. pastoris gene expression; test: RNA-Seq gene expression and ssGSEA at stages of perfusion cultivation; format: cell-based, K. phaffii
Description: To study gene expression under perfusion, seven cultivations were conducted (FIG. 14B). The production medium contained 1.5% v/v methanol. For four of the bioreactors (labeled 1, 3, 5A, 6A), the cultures were induced immediately after the DO spike. For the other three reactors (labeled 4, 5, 6), glycerol feed was maintained after the DO spike for 4 hours and then the cultures were induced with methanol. There were no significant differences between the biomass, hGH titers, or transcriptomic data between the two conditions (FIG. 15), so they were treated as biological replicates for RNA-Seq analysis.
RNA was isolated from samples taken at six time points during the cultivation (FIG. 14B). Samples were taken from all reactors after one day of exponential growth on glycerol (G1) and immediately after the DO spike (G2). […]
RNA was extracted using the Qiagen RNeasy kit (cat. no. 74104). […] All libraries were sequenced on the Illumina NextSeq platform to generate 75-nucleotide paired-end reads at a read depth of at least 3 million reads per sample. The reads were aligned to the previously reported genome sequence for this strain (Love et al., 2016) using RSEM version 1.2.15 with bowtie2 version 2.2.3. The reads were also aligned to the sequence for hGH using BWA (version 0.7.12). […]

[3] = test system: P. pastoris strains expressing hGH, G-CSF, IFN; test: Amino acid supplementation of defined media: recombinant protein expression (GXII, SDS-PAGE, ELISA); format: cell-based; conditions: alone or with other amino acids, IFN (FIG. 10-13)
Description: Here, a study is presented of the impact of adding specific amino acids on recombinant protein titers. To uncover a general formulation, three P. pastoris strains were studied, each expressing a different heterologous protein.
Expression of three recombinant proteins, hGH, G-CSF, and IFN, by P. pastoris grown in media with different individual amino acids, 12.5 mM each. Protein concentrations measured by GXII, samples taken 24 hours after methanol induction (FIG. 10).
(FIG. 11). hGH expression by P. pastoris grown in media with different combinations of amino acids, each 12.5 mM total, based on initial individual amino acid screenings is shown. hGH concentrations were measured by GXII, samples taken 24 hours after methanol induction.
In FIG. 12, the effect of Asparagine, Glutamine, and Arginine on protein expression is examined. The starred media conditions are as follows; Glutamine, Arginine, Glutamine+Arginine (RDM), Asparagine, Glutamine+Asparagine, and all 20 amino acids. In all media conditions, total amino acid concentration is normalized to 25 mM.
hGH production was measured in media containing individual or combinations of amino acids. The total concentration in (mM) of amino acids was 12.5, 25, or 50 mM. The results were measured by ELISA, and each value is the average of three technical replicates.

[4] = perfusion, 15% v/v vs 1.5% v/v methanol

NCCCC[C@H](N)C(=O)O [Lysine]
Effect of supplement on growth rate (wildtype Pichia pastoris): did not
Growth rate μ in supplemented defined media (wildtype Pichia pastoris): 0.196 h⁻¹

CC(O)C(=O)O (stereo not shown) [Lactate]
Growth rate μ in supplemented defined media (wildtype Pichia pastoris): 0.186 h⁻¹

OC[C@H]1O[C@H](O[C@H]2O[C@H](CO)[C@@H](O)[C@H](O)[C@H]2O)[C@H](O)[C@@H](O)[C@@H]1O [Trehalose]
Growth rate μ in supplemented defined media (wildtype Pichia pastoris): 0.193 h⁻¹

S1SSSSSSS1 [sulfur]
Effect on growth rate of reducing the element's concentration by 50% (wildtype Pichia pastoris): no significant effect

N [ammonium]
Effect on growth rate of reducing the element's concentration by 50% (wildtype Pichia pastoris): significantly improved the growth rate
Concentration at which it became limiting for growth (wildtype Pichia pastoris; basal salts medium (FIG. 2B)): 12.5 mM

C[C@H](N)C(=O)O [Alanine]
Effect of supplement on growth rate (wildtype Pichia pastoris): did not
Growth rate μ in supplemented defined media (wildtype Pichia pastoris): 0.195 h⁻¹

CO [methanol]
Cell-specific productivity relative to low-feed case ([1]; beginning of the cultivation (FIG. 23C)): double
Biomass concentration ([1]; perfusion, 15% v/v methanol, day 6 of production): 530 g/L WCW
hGH titer ([1]; perfusion, 15% v/v methanol, end of the cultivation): 2 g/L
Cell density relative to low-methanol feeding experiments [1, 4]: over four times greater
hGH titers relative to lower methanol feed rate [1, 4]: over six times higher
Average growth rate ([1]; perfusion, methanol feed rate increased by a factor of ten (15% v/v)): 0.01 h⁻¹
Volumetric productivity relative to lower methanol feed ([1]; perfusion, on average (FIG. 23D)): 3-4 times
Increase in expression of genes involved in methanol metabolism vs glycerol ([2]; first 4 hours after induction): 35 fold
Increase in expression of genes involved in methanol metabolism vs glycerol ([2]; later in methanol feeding): 100 fold

NC(=O)C[C@H](N)C(=O)O [asparagine]
Effect on protein production [3]: increases protein production

NC(=O)CC[C@H](N)C(=O)O [Glutamine]
Growth rate μ in supplemented defined media (wildtype Pichia pastoris): 0.217 h⁻¹
Effect on protein production [3]: increases protein production

phosphate
Effect on growth rate of reducing the element's concentration by 50% (wildtype Pichia pastoris): no significant effect

N=C(N)NCCC[C@H](N)C(=O)O [Arginine]
Effect of supplement on growth rate (wildtype Pichia pastoris): significant benefit
Growth rate μ in supplemented defined media (wildtype Pichia pastoris): 0.202 h⁻¹
Effect on protein production [3]: increases protein production
